The subject of experiment [1] is heat shock inducible genes in HCT-116 cells. The experiment is described as follows: Heat shock induction in HCT-116 cells (Pol II ChIP-seq). The conditions noted are these: 5 hr pretreatment, 42° C. 1 hr. The format is cell-based, human. How it is done: FIG. 5. SEC inhibitors block transcription elongation in SEC-dependent rapid response models. (A-B) Genome browser tracks of Pol II ChIP-seq at the FOS, HSPD1 and HSPE1 genes after 1 hr heat shock of HCT-116 cells treated with vehicle (DMSO) or the indicated SEC inhibitors. HCT-116 cells were pretreated with inhibitors for 5 hr at 37° C. before exchanging medium with conditioned 42° C. medium. Dark and light colors indicate the 37 and 42° C. conditions, respectively. (C) Genome-wide identification of heat shock-induced genes with fold change of reads per million in gene bodies and pausing index. Red dots are the 136 heat shock-induced genes according to Pol II signals (fold change of reads per million in gene bodies >1.5 and pausing index decreased >1.5-fold in the DMSO-treated condition). […] Box plot analysis depicts the log2 fold changes of reads per million in gene bodies (E) (y axis) after heat shock with pretreatment of vehicle or SEC inhibitors. […]
Chromatin Immunoprecipitation Sequencing. […] ChIP-seq reads were aligned to the Drosophila genome (UCSC dm3) or human genome (UCSC hgl9). Alignments were processed with Bowtie version 1.1.2, allowing only uniquely mapping reads with up to two mismatches within the 50 bp read. The resulting reads were extended to 150 bp toward the interior of the sequenced fragment and normalized to total reads aligned (reads per million, r.p.m.). […]

Experiment [2] concerns MDA231-LM2 cells. The experiment is described as follows: Annexin V apoptosis in MDA231-LM2 cells. The format is cell-based. The following applies: 24 hr. The procedure: FIG. 14, related to FIG. 7. SEC disruptors delay tumor progression and improve survival of MDA231-LM2 tumor mice. (A) KL-1 and KL-2 inhibit the colony formation of MDA231-LM2 cells in vitro. 5×10^3 MDA231-LM2 cells were seeded in 6-well plates and treated with KL-1 or KL-2 at the indicated doses for 5 days. Crystal violet staining was performed to stain the colonies. (B) KL-1 and KL-2 induce apoptosis in MDA231-LM2 cells. Bar graph depiction of Annexin V positive MDA231-LM2 cells after 24 hr of KL-1 and KL-2 treatments at the indicated concentrations. Data are represented as Mean+/−SD. […] Each individual line indicates the weights of each mouse during toxicity test.

For the molecule `COc1cccc(C(=O)CC(=O)C(=O)Nc2cc(Cl)ccc2C)c1` [KL-1, N-(5-chloro-2-methylphenyl)-4-oxo-4-(3-methoxyphenyl)-2-oxobutanamide], in experiment [1], the “induction of heat shock inducible genes” value is on record as “block induction of known heat shock inducible genes”. Further, in experiment [2], the “apoptosis (Annexin V staining)” value is “increase apoptosis”.

(Values after patent US11453640B2, “Small molecules for disrupting the super elongation complex and inhibiting transcription elongation for cancer therapy” (NORTHWESTERN UNIVERSITY, priority 2018, dated 2022).)
